# Source: patent US20010055756A1, “Internal de novo initiation sites of the HCV NS5B polymerase and use thereof” (priority 2000, published 2001)
# “Also recorded” adds a separate entry of the source.
# Test system: HCV NS5B polymerase
# Assay: Testing of GTP analogs in the NS5B de novo initiation reaction with RNA template 24-1
# Type: biochemical, hepatitis C virus
# Details: analog at 500 μM added to reactions with 100 μM or 500 μM GTP, 5 nM NS5B, 10 nM template 24-1, 2.5 h
# Protocol: Unless indicated otherwise, the standard reactions that incorporated [α-^33P]UTP contained 5 nM of purified NS5B and 10-50 nM of the indicated RNA template (i.e.: 24, 24-1, 128-4, 130-21, 150-41 or mutant templates) incubated at 22° C. for 2.5 h in 22.5 mM Tris-HCl pH 7.5, 5 mM MgCl2, 1 mM EDTA, 1.5 mM DTT, 30 mM NaCl, 0.33% N-Dodecyl-β-D-Maltoside, 0.01% Igepal CA-630, 5% DMSO, 5 μCi [α-^33P]UTP, 10 μM UTP, 500 μM of the three other rNTPs and 0.16 U/μl RNase inhibitor (Promega). NS5B polymerase reactions that incorporated γ-^32P into the radioactively labeled 5′product were supplemented with either 8 μCi of [γ-^32P]GTP or [γ-^32P]ATP in place of [α-^33P]UTP in the standard reaction. The reactions were then supplemented with PK buffer (50 mM Tris HCl pH 7.5 150 mM NaCl, 0.5% SDS) and treated with Proteinase K (0.8 μg /μl) and glycogen (0.1 μg/μl) for 30 min at 37° C. RNA was extracted with phenol-chloroform and precipitated with isopropanol. The RNA pellet was dissolved in 10-15 μl of denaturing solution (80% formamide, 10 mM EDTA), heated for 10 min at 70-75° C. and analysed on denaturing 8 M urea/5% polyacrylamide gels. Gels were dried and radioactive products visualized with a phospho-imager (Molecular Dynamics).
# m7GpppG and GpppG were purchased from Ambion; Ribavirin monophosphate and Ribavirin triphosphate were purchased from Chemgenes (Ashland, Mass.); ddGTP was from Amersham; Caged GTP was from Molecular Probes. All other GTP analogs were from Sigma/Aldrich. Each of the analogs was added (at 500 μM) to the NS5B polymerization reaction containing either: 100 μM or 500 μM GTP (reference reactions). Stimulation by GTP itself, as a positive control, was performed such that the reactions then contained 600 μM or 1 mM GTP (respectively labeled as the +500 μM GTP bars). The standard polymerase reactions incorporating [α-^33P]UTP were incubated for 2.5 h in the presence of 5 nM NS5B and 10 nM of RNA template 24-1. The reactions were stopped by spotting 8 μl on a DE81 filters which were then washed extensively (3×) with 1M NaPO4 pH 7 and dried. The radioactivity incorporated into product RNA that was retained on the DE-81 filters was measured in a scintillation counter. The effect of the various analogs on the reaction is represented by the fold stimulation of activity compared to 100μM or 500μM GTP (reference reaction bars). 5′-p-FSBA=5′-p-fluorosulfonyl-benzoyladenosine
Molecule,effect on de novo initiation reaction (fold stimulation relative to GTP alone),further results
Nc1nc2c(ncn2[C@@H]2O[C@H](COP(=O)(O)O)[C@@H](O)[C@H]2O)c(=O)[nH]1 [GMP],stimulating,
Nc1nc2c(ncn2C(C=O)OC(C=O)COP(=O)(O)OP(=O)(O)OP(=O)(O)O)c(=O)[nH]1.[Na] (stereo not drawn) [GTP 2′3′-dialdehyde],clear inhibitor; also recorded: inhibiting,effect on de novo initiation reaction (fold stimulation relative to GTP alone) (listed as GTP 2′3′dialdehyde): inhibitory
Nc1nc2c(ncn2[C@@H]2O[C@H](COP(=O)(O)OP(=O)(O)OP(=O)(O)O)[C@@H](O)[C@H]2O)c(=O)[nH]1 [GTP],activation,
Nc1nc2c(ncn2[C@@H]2O[C@H](COP(=O)(O)OP(=O)(O)OP(=O)(O)OC[C@H]3O[C@@H](n4cnc5c(=O)[nH]c(N)nc54)[C@H](O)[C@@H]3O)[C@@H](O)[C@H]2O)c(=O)[nH]1 [GpppG],most efficient analogs in stimulating de novo initiation; also recorded: stimulating; also recorded: stimulate,
CC(OP(=O)(O)OP(=O)(O)OP(=O)(O)OC[C@H]1O[C@@H](n2cnc3c(=O)[nH]c(N)nc32)[C@H](O)[C@@H]1O)c1ccccc1[N+](=O)[O-] (stereo partly drawn) [caged-GTP],stimulating,
Nc1nc2c(ncn2[C@@H]2O[C@H](CO)[C@@H](O)[C@H]2O)c(=O)[nH]1 [guanosine],stimulating; also recorded: stimulate,
"Cn1c[n+]([C@@H]2O[C@H](COP(=O)(O)OP(=O)([O-])OP(=O)(O)OC[C@H]3O[C@@H](n4cnc5c(=O)[nH]c(N)nc54)[C@H](O)[C@@H]3O)[C@@H](O)[C@H]2O)c2nc(N)[nH]c(=O)c21 [m7 GpppG, 7-methyl GpppG]",most efficient analogs in stimulating de novo initiation,effect on de novo initiation reaction (fold stimulation relative to GTP alone) (listed as 7-methyl GpppG): stimulating; also recorded: stimulate
"NC(=O)c1ncn([C@@H]2O[C@H](CO[P@@](=O)(O)O[P@](=O)(O)OP(=O)(O)O)[C@@H](O)[C@H]2O)n1 [ribavirin tri-phosphate, Ribavirin triphosphate]",moderate level of inhibition,effect on de novo initiation reaction (fold stimulation relative to GTP alone) (listed as ribavirin triphosphate): inhibiting; also recorded: inhibitory
GDP-γ-S,stimulating,
